In assay [1] the test system is Systemic Inflammatory Response Syndrome (SIRS): Intravenous Lipopolysaccharide Stimulation. Put plainly: Animal model for SIRS: intravenous LPS bolus stimulation in rats (Method 1). The conditions noted are these: for IL-6 / TAT: rat blood, ELISA. It is filed as in vivo. The procedure: Animal Model for Systemic Inflammatory Response Syndrome (SIRS): Intravenous Lipopolysaccharide Stimulation (Modified According to Isobe et al. Circulation 2001; 104: 1171-1175)
Rats (male, approx. 300 g CrlGlxBrlHan:Wi) were anaesthetised with pentobarbital (60 mg/kg i.p.). To maintain the anaesthetic a pentobarbital drip was set up (22.5 mg/kg/h i.p.). The carotid artery was cannulated for taking blood samples, the left jugular vein was cannulated for administration of the substance and the right jugular vein was cannulated for administering the LPS. The administration of (R)-2-[…]-5-[1-(carboxymethylamino)-1-(pyrrolidinocarbonyl)-ethyl]-benzimidazole (0.1 mg/kg/h) was started at time t=−60 min as a continuous drip and maintained until the end of the experiment. One hour after the start of the infusion of the substance, a single bolus of LPS was administered (lipopolysaccharide of E. coli serotype 0127:B8 Sigma L-3129 5 mg/kg i.v. bolus) at time t=0 min. In order to determine the coagulation and inflammation parameters, blood was taken via the arterial cannulae at times a) before the infusion of placebo or (R)-2-(4-amidinophenylaminomethyl)-1-methyl-5-[1-(carboxymethylamino)-1-(pyrrolidinocarbonyl)-ethyl]-benzimidazole (−60 minutes), b) before administration of the LPS bolus (0 minutes) and c) 240 minutes after the administration of LPS. From the blood samples the TAT complex (thrombin-antithrombin) and interleukin-6 (IL-6) were determined by ELISA as parameters of a systemic inflammatory reaction.
On the technique in general: In an ELISA, binding on a coated surface is turned into a signal by an enzyme label.

Assay [2] has the same test system. Put plainly: Animal model for SIRS: continuous intravenous LPS infusion in rats (Method 2). The assay is classed as in vivo. The procedure: Animal Model for Systemic Inflammatory Response Syndrome (SIRS): Intravenous Lipopolysaccharide Stimulation (Modified According to Aoki et al. Drug Res. 50: 809; 2000 and Yamazaki et al. Blood Coag. Fibrinol. 10: 321; 1999)
Rats (male, approx. 300 g CrlGlxBrlHan:Wi) were anaesthetised with pentobarbital (60 mg/kg i.p.). To maintain the anaesthetic a pentobarbital drip was set up (22.5 mg/kg/h i.p.). The left jugular vein was cannulated for administration of the substance and the right jugular vein was cannulated for administering the LPS. LPS was given as a continuous infusion for 4 hours (lipopolysaccharide of E. coli serotype 0127:B8 Sigma L-3129 7.5 mg/kg/h). (R)-2-(4-amidinophenylaminomethyl)-1-methyl-5-[1-(carboxymethylamino)-1-(pyrrolidinocarbonyl)-ethyl]-benzimidazole (0.1 mg/kg/h) was administered as a continuous infusion (100 μg/kg/h) one hour after the start of the LPS infusion with a total duration of 3 hours. In order to determine the inflammation parameters, blood was taken from the abdominal artery after a total test period of four hours. From the blood samples the TAT complex (thrombin-antithrombin), interleukin-1β (IL-1β), interleukin-6 (IL-6) and the tumour necrosis factor alpha (TNF-alpha) were determined by ELISA as parameters of a systemic inflammatory reaction. Alanine-aminotransferase (ALT) and creatinin served as enzyme parameters for organ damage to the liver and kidneys.

Setting [3] is: 0 min (before LPS bolus, 1 h after start of infusion), active substance 100 μg/kg/h.
[4] abbreviates: +240 min after LPS 5 mg/kg i.v. bolus, active substance 100 μg/kg/h.
Setting [5] is: result in words, LPS bolus, 0.1 mg/kg/h.
Setting [6] is: −60 min (before start of infusion), LPS + active substance 100 μg/kg/h continuous drip.
The mark [7] stands for this setting: LPS 7.5 mg/kg/h × 4 h + 100 μg/kg/h infusion from 1 h after LPS start for 3 h, blood after 4 h, mean ± standard deviation.
The mark [8] stands for this setting: result in words, continuous LPS infusion, 0.1 mg/kg/h.

Marks after values point to notes of the source that are not given here.

For `Cn1c(CNc2ccc(C(=N)N)cc2)nc2cc([C@@](C)(NCC(=O)O)C(=O)N3CCCC3)ccc21` [BIBT 986, (R)-2-(4-amidinophenylaminomethyl)-1-methyl-5-[1-(carboxymethylamino)-1-(pyrrolidinocarbonyl)-ethyl]-benzimidazole], in assay [1] (setting [3]), the IL-6 amounted to 0.143 ± 0.083 ng/mL and the TAT worked out at 2.21 ± 0.79 ng/mL. Moreover, in assay [1] (setting [4]), the IL-6 is given as 43.454 +/− 2.975 * ng/ml and the TAT is 6.52 +/− 1.33 * ng/ml. Moreover, in assay [1] (setting [5]), the “plasma levels of IL-6 versus untreated LPS animals” value was “significant (p<0.02) reduction”; the “plasma levels of the TAT complex versus untreated LPS animals” value was “significantly lower than in the untreated LPS animals (p<0.02) and were within the control range”. In assay [1] (setting [6]), the IL-6 was 0.139 ± 0.086 ng/mL and the TAT worked out at 2.33 ± 0.89 ng/mL. In assay [2] (setting [7]), the IL-1β was determined as 4036 ± 1000 pg/mL, the IL-6 was 89579 ± 10069 pg/mL and the TNF-alpha came to 1003 ± 292 pg/mL. The creatinin in assay [2] (kidney damage marker, LPS 7.5 mg/kg/h × 4 h + 100 μg/kg/h infusion for 3 h, blood after 4 h, mean ± standard deviation) came to 40.1 ± 1.8 µmol/L. Also, in assay [2] (liver damage marker, LPS 7.5 mg/kg/h × 4 h + 100 μg/kg/h infusion for 3 h, blood after 4 h, mean ± standard deviation), the ALT is listed as 44.2 ± 7.1 U/ml. In addition, in assay [2] (setting [8]), the “ALT versus untreated control animals” value is recorded as “not significantly different from untreated control animals”, the “TAT complex versus LPS-treated animals” value is “significant lowering”, the “creatinin versus untreated control animals” value is listed as “not significantly different from untreated control animals” and the “plasma levels of IL-1β versus LPS-treated animals” value was “significant (p<0.02) lowering”. Besides, in assay [2] (setting [8]), the “plasma levels of IL-6 versus LPS-treated animals” value is recorded as “significant (p<0.02) lowering” and the “plasma levels of TNF alpha versus LPS-treated animals” value is reported as “significant (p<0.02) lowering”.

Source of the values: patent US20090022686A1, “PHARMACEUTICAL COMPOSITIONS FOR THE TREATMENT OF SYSTEMIC INFLAMMATORY RESPONSE SYNDROME” (Boehringer Ingelheim Pharma GmbH & Co. KG, priority 2002, published 2009).
